{
  "source": "patent US9303076B2",
  "about": "“Cell-penetrating peptides and uses thereof” (Hoffmann-La Roche Inc., priority 2010, dated 2016)",
  "key": {"human Aha1 mRNA": {"test_system": "human Aha1 mRNA", "assay": "siRNA transfection screening (siAha1 vs siGL3 control, bDNA assay of Aha1/GAPDH mRNA)", "type": "cell-based", "method": "For the quantification of cellular mRNA levels bDNA (branched DNA) assays were performed which enable the detection of individual mRNA levels. To this end, a defined number of the cells to be analyzed was seeded into 96-well plates and allowed to attach over night. On the next day, the cells were transfected with siRNA.\nAfter further 24 hours, the mRNA species were quantified using the QuantiGene Plex 2.0 assay kit according to the manufacturers instructions (Affymetrix Inc., Santa Clara, Calif., USA). In brief, cell lysates were transferred to a capture plate in the presence of a gene-specific probe set and incubated at 53° C. over night. After washing, the wells were sequentially incubated at 53° C. with an amplifier agent and an alkaline phosphatase (AP)-linked label probe with a washing step in between. Subsequently, the luminescent AP substrate dioxitane was added and incubated for 30 min at 53° C. Luminescence was assayed using an InfiniteF200 luminescence reader (Tecan Austria GmbH, Groding, Austria).\nIn order to analyze the potential CPPs for their ability to transfect siRNA into mammalian cells an increasing peptide concentration (from 1 μM to 20 μM) was employed along with a constant siRNA concentration (100 nM). This range of peptide concentrations was used as it had been shown that positively charged peptides such as TAT are internalized into cells in ranges up to 10 μM and remain in intracellular membrane compartments without significant egress into the cytosol (Duchardt, F. et al. (2007) Traffic 8, 848-866). […] A concentration of 10 nM siRNA is in the saturation range as determined in control experiments using the DharmaFECT transfection reagent (Dharmacon, Inc., Lafayette, Colo., USA; data not shown).\nThe siRNA oligonucleotides employed were directed against human Aha1 mRNA (Panaretou, B. et al. (2002) Mol. Cell 10, 1307-1318) or against luciferase mRNA as a control.\nComplexes of siRNA and the respective peptides were formed in OptiMEM medium and incubated for 15 minutes at room temperature. The cells were incubated in the presence of the complexes for three hours in OptiMEM. After washing, the cells were incubated for further 21 or 45 hours in normal growth medium. Thereafter, the levels of Aha1 mRNA and a reference mRNA (i.e. GAPDH mRNA) were measured by means of a bDNA assay. These assays were performed with cells that were transfected with siAHA1 and with a control siRNA (siGL3, luciferase), respectively.\nAs a measure for specific RNAi, the reduction of Aha1 mRNA levels relative to GAPDH mRNA levels was compared in siAHA1-transfected cells and siGL3-transfected cells. Specific siRNA mediated transfection causes a reduction in Aha1/GAPDH mRNA values in siAhA1-compared to siGL3-transfected cells. FIG. 3 depicts the screening readout of these assays: the Aha1/GAPDH mRNA values of non-transfected control cells were set to 100% (for each assay), and the Aha1/GAPDH mRNA values of siAha1- or siGL3-transfected cells were expressed relative to that. For this normalized data set, the differences between the respective Aha1/GAPDH mRNA levels of siAha1- and siGL3-transfected cells were determined. Specific peptides caused a significant reduction in siAha1 transfection without reducing siGL3 transfections, which results in positive difference values. The more pronounced these values are, the more specific RNAi is observed (cf. FIG. 3)."}, "recombinant BCL2": {"target": "T1, recombinant BCL2 (Homo sapiens, UniProt P10415)", "T1 construct": "purchased Calbiochem/Merck, Darmstadt, Germany", "T1 sequence (P10415 whole entry, the tested form may be a part)": "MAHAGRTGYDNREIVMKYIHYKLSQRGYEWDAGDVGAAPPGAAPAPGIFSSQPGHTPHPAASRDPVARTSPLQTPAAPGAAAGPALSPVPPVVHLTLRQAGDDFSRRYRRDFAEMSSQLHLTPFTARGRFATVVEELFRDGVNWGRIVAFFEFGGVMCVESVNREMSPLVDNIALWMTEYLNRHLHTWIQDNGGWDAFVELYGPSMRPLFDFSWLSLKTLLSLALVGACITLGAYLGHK", "assay": "BCL2 binding to bead-immobilized peptides", "conditions": "iodoacetyl beads, elution buffer pH 2.8, protein stain", "method": "In order to determine whether the BCL2 binding properties of the Nur77-derived peptide are maintained in the NurNRTN fusion peptide, the respective NurNRTN and NRTN peptides were coupled to iodoacetyl beads (Pierce Biotechnology, Inc., Rockford, Ill., USA). The beads were incubated with recombinant BCL2 (Calbiochem/Merck, Darmstadt, Germany) and washed with PBS and 0.5 M NaCl, 0.025 NaN3, 0.05% Tween20 to remove unbound protein. Specific binding of BCL2 to the immobilized NurNTRN fusion peptide was determined by eluting bound […] from the beads with elution buffer (pH 2.8), transfer of the eluted fraction to nitrocellulose (Invitrogen Corporation, Carlsbad, Calif., USA), and protein detection by means of the MemCode Reversible Protein Stain Kit (Pierce Biotechnology, Inc., Rockford, Ill., USA)."}, "MCF7 cells": {"test_system": "MCF7 cells", "assay": "FACS analysis of internalization of FITC-labeled peptides", "type": "cell-based, human", "method": "For FACS analysis, MCF7 cells (ATCC number HTB-22) were detached by 15 min incubation in accutase (an enzyme solution having proteolytic and collagenolytic activities; commercially available from various suppliers). After washing in FACS buffer (PBS containing 5% FCS), the cells were seeded in a 96 well, rounded bottom multi-well plate (Cat. No. 3799, Corning Inc., Corning, N.Y. USA) in a final density of 3×10^5 cells/ml and used immediately. The cells were incubated in the respective presence of 1 μM, 5 μM and 10 μM FITC-labeled peptides in OptiMEM medium for 3 hours at 37° C. Afterwards, the cells were washed in FACS buffer and incubated in proteinase K (0.02 mg/ml) containing buffer for 30 minutes at 37° C. The cells were washed twice and analyzed with the FACSCanto II (BD Biosciences; San Jose, Calif., USA) using the FITC channel.\nFor determining the internalization behavior of the CPPs identified in the screening procedures FITC-labeled derivates of said peptides (at 1 μM, 5 μM, and 10 μM, respectively) were analyzed by means of FACS. The following peptides were used: NRTN as a transfecting peptide, WNT16 as a non-transfecting peptide, FALL as a toxic peptide and TAT as a reference (positive control) (cf. FIG. 12). MCF7 cells were incubated in the presence of the fluorescent peptide derivatives for 3 hours at 37° C. in OptiMEM. Subsequently, the cells were treated with proteinase K for 30 minutes at 37° C. to remove surface bound peptides, and thus to ensure the monitoring only of internalized peptides. The cells were then washed in PBS and analyzed by FACS."}},
  "note": "“Also recorded” adds a separate entry of the source.",
  "data": [
    {"sequence": "GAAEAAARVYDLGLRRLRQRRRLRRERVRA (NRTN peptide sequence; listed as Homo sapiens) [peptide derived from human neurturin]", "values": [
      {"measurement": "siRNA transfection activity (specific Aha1 mRNA reduction relative to GAPDH mRNA)", "setting": "human Aha1 mRNA; MCF7 cells, 100 nM siRNA, peptide 1 μM to 20 μM", "result": "even more effective reduction of Aha1 mRNA levels"},
      {"measurement": "transfection efficacy compared with TAT / control peptides", "setting": "human Aha1 mRNA; NRTN: at lower non-toxic concentrations", "result": "higher than that of all (positive) control peptides analyzed; also recorded: efficacy even higher than TAT"},
      {"measurement": "BCL2 in eluates from peptide-coated beads", "setting": "recombinant BCL2", "result": "very small amounts of BCL2 were eluted"},
      {"measurement": "internalization into cells (FACS, FITC channel)", "setting": "MCF7 cells; FITC-labeled peptide 1, 5, 10 μM, 3 hours at 37° C., proteinase K treated", "result": "internalized into MCF7 cells"},
      {"measurement": "change of internalization with concentration", "setting": "MCF7 cells; increasing the concentration from 5 μM to 10 μM", "result": "strong increase in internalization"}
    ]}
  ]
}
